Assay results published in ChEMBL document CHEMBL4270506, “Recent advances in drug discovery of phototherapeutic non-porphyrinic anticancer agents” (Eur J Med Chem, 2017).

Assays:
[1] = Dark toxicity in human BxPC3 cells assessed as inhibition of cell growth at 6.25 to 25 uM incubated for 24 hrs by MTT assay; type: cell-based, BXPC-3; conditions: read-out: GI
BXPC-3 [2] = assay: Phototoxicity in human BxPC3 cells assessed as inhibition of cell growth at 6.25 uM pre-incubated for 3 hrs before irradiation with 780 nm light for 1 mins and measured after 24 hrs by MTT assay; type: functional; conditions: BXPC-3, light or radiation study, read-out: GI
BXPC-3 [3] = assay: Phototoxicity in human BxPC3 cells assessed as inhibition of cell growth at 12.5 uM pre-incubated for 3 hrs before irradiation with 780 nm light for 1 mins and measured after 24 hrs by MTT assay; type: functional; conditions: BXPC-3, light or radiation study, read-out: GI
BXPC-3 [4] = assay: Phototoxicity in human BxPC3 cells assessed as inhibition of cell growth at 25 uM pre-incubated for 3 hrs before irradiation with 780 nm light for 1 mins and measured after 24 hrs by MTT assay; type: functional; conditions: BXPC-3, light or radiation study, read-out: GI
[5] = Dark toxicity in human MIAPaCa2 cells assessed as inhibition of cell growth at 6.25 to 25 uM incubated for 24 hrs by MTT assay; type: cell-based, MIA PaCa-2; conditions: read-out: GI
MIA PaCa-2 [6] = assay: Phototoxicity in human MIAPaCa2 cells assessed as inhibition of cell growth at 6.25 uM pre-incubated for 3 hrs before irradiation with 780 nm light for 1 mins and measured after 24 hrs by MTT assay; type: functional; conditions: MIA PaCa-2, light or radiation study, read-out: GI
MIA PaCa-2 [7] = assay: Phototoxicity in human MIAPaCa2 cells assessed as inhibition of cell growth at 12.5 uM pre-incubated for 3 hrs before irradiation with 780 nm light for 1 mins and measured after 24 hrs by MTT assay; type: functional; conditions: MIA PaCa-2, light or radiation study, read-out: GI
MIA PaCa-2 [8] = assay: Phototoxicity in human MIAPaCa2 cells assessed as inhibition of cell growth at 25 uM pre-incubated for 3 hrs before irradiation with 780 nm light for 1 mins and measured after 24 hrs by MTT assay; type: functional; conditions: MIA PaCa-2, light or radiation study, read-out: GI
[9] = Dark toxicity in human LoVo cells assessed as reduction in cell viability after 72 hrs by MTT assay; type: cell-based
LoVo = assay: Phototoxicity in human LoVo cells assessed as cell viability at 2 to 8 umol/L pre-incubated for 30 mins before irradiation at 365 nm at 3.75 J/cm2 and measured after 72 hrs by MTT assay; type: functional; conditions: light or radiation study
[10] = Dark toxicity in human Jurkat cells assessed as reduction in cell viability after 72 hrs by MTT assay; type: cell-based
Jurkat = assay: Phototoxicity in human Jurkat cells assessed as cell viability at 2 to 8 umol/L pre-incubated for 30 mins before irradiation at 365 nm at 3.75 J/cm2 and measured after 72 hrs by MTT assay; type: functional; conditions: light or radiation study
[11] = Dark toxicity in human K562 cells assessed as reduction in cell viability after 72 hrs by MTT assay; type: cell-based
K562 = assay: Phototoxicity in human K562 cells assessed as cell viability at 2 to 8 umol/L pre-incubated for 30 mins before irradiation at 365 nm at 3.75 J/cm2 and measured after 72 hrs by MTT assay; type: functional; conditions: K562, light or radiation study
[12] = Dark toxicity in human A431 cells assessed as reduction in cell viability after 72 hrs by MTT assay; type: cell-based, A-431
A-431 = assay: Phototoxicity in human A431 cells assessed as cell viability at 2 to 8 umol/L pre-incubated for 30 mins before irradiation at 365 nm at 3.75 J/cm2 and measured after 72 hrs by MTT assay; type: functional; conditions: A-431, light or radiation study
SK-OV-3 = assay: Phototoxicity in human SKOV3 cells assessed as reduction in cell viability in presence of irradiation with green lED light at 25.2 J/cm2 for 2 hrs followed by incubation in dark for 24 hrs by MTT assay; type: functional, cell-based; conditions: SK-OV-3, light or radiation study
[13] = Dark toxicity in mouse DLA cells assessed as inhibition of cell viability by trypan blue dye exclusion method; type: cell-based; conditions: read-out: INH
[14] = Phototoxicity in mouse DLA cells assessed as inhibition of cell viability illuminated for 10 mins at total dose of 46 J/cm2 irradiation by trypan blue dye exclusion method; type: functional
[15] = Dark toxicity in human […] cells assessed as cell viability at 50 ug/ml by CCK8 assay; type: cell-based; conditions: read-out: Activity
[16] = Phototoxicity in human […] cells assessed as cell viability at 5 ug/ml under irradiation at 532 nm by CCK8 assay; type: functional; conditions: light or radiation study, read-out: Activity
[17] = Dark toxicity in human […] cells assessed as cell viability at 10 ug/ml by CCK8 assay; type: cell-based; conditions: read-out: Activity
[18] = Phototoxicity in human […] cells assessed as cell viability at 10 ug/ml under irradiation at 457 nm at 20 J/cm2 by CCK8 assay; type: functional; conditions: light or radiation study, read-out: Activity
[19] = Lipophilicity, log P of the compound; type: physicochemical; conditions: octanol/water

## CC1(C)C(/C=C/C2=C(Cl)C(=C/C=C3/N(CCCCS(=O)(=O)O)c4cc(I)cc(I)c4C3(C)C)/CCC2)=[N+](CCCCS(=O)(=O)O)c2cc(I)cc(I)c21
[1]
  inhibition at 24 h, up to 25 µM: 0%
BXPC-3 [2]
  inhibition of growth at 6.25 µM: > 10%
BXPC-3 [3]
  inhibition of growth at 12.5 µM: > 20%
BXPC-3 [4]
  inhibition of growth at 25 µM: 40%
[5]
  inhibition at 24 h, up to 25 µM: 0%
MIA PaCa-2 [6]
  inhibition of growth at 6.25 µM: 20%
MIA PaCa-2 [7]
  inhibition of growth at 12.5 µM: > 40%
MIA PaCa-2 [8]
  inhibition of growth at 25 µM: 70%

## Cn1ccc2c1-c1[nH]c(=O)ncc1CC2
[9]
  GI50 at 72 h: > 20000 nM
LoVo
  GI50: > 20000 nM
[10]
  GI50 at 72 h: > 20000 nM
Jurkat
  GI50: > 20000 nM
[11]
  GI50 at 72 h: > 20000 nM
K562
  GI50: > 20000 nM
[12]
  GI50 at 72 h: > 20000 nM
A-431
  GI50: > 20000 nM

## COc1ccc(C2=C3C(C)=C(I)C(C)=[N+]3[B-](F)(F)n3c(C)c(I)c(C)c32)cc1
SK-OV-3
  EC50: 0.65 nM

## CC(C)c1ccc(C2=C([O-])/C(=C\c3sc4cc(I)ccc4[n+]3CCCCS(=O)(=O)O)C2=O)cc1
[13]
  cytotoxicity: < 10%
[14]
  inhibition (INH): 80%

## CN(CCC(=O)O)c1ccc(/C=C2\CC/C(=C\c3ccc(N(C)CCC(=O)O)cc3)C2=O)cc1
[15]
  viability at 50 ug/ml: > 70%
[16]
  viability at 5 µg/mL: > 80%

## CC1=C(I)C(C)=[N+]2C1=Cc1c(C)c(I)c(C)n1[B-]2(F)F
SK-OV-3
  EC50: 28.8 nM

## CCOC(=O)c1cc2c(n1Cc1ccc(C)cc1)-c1nc(N)ncc1CC2
[9]
  GI50 at 72 h: > 20000 nM
LoVo
  GI50: 340 nM
[10]
  GI50 at 72 h: > 20000 nM
Jurkat
  GI50: 230 nM
[11]
  GI50 at 72 h: > 20000 nM
K562
  GI50: 410 nM
[12]
  GI50 at 72 h: > 20000 nM
A-431
  GI50: 260 nM

## COCCOCCOCCOCCN(CCOCCOCCOCCOC)c1ccc(/C=C2\CC/C(=C\c3ccc(N(CCOCCOCCOCCOC)CCOCCOCCOCCOC)cc3)C2=O)cc1
[17]
  viability at 10 ug/ml: > 80%
[18]
  viability at 10 µg/mL: > 60%
[19]
  logP: 2.32 to 3.04

## CCN(CC)c1ccc(/C=C2\CC/C(=C\c3ccc(N(C)CCC(=O)O)cc3)C2=O)cc1
[15]
  viability at 50 ug/ml: < 30%
[16]
  viability at 5 µg/mL: < 10%

## CCOC(=O)c1cc2c(n1C)-c1nc(N)ncc1CC2
[9]
  GI50 at 72 h: > 20000 nM
LoVo
  GI50: > 20000 nM
[10]
  GI50 at 72 h: > 20000 nM
Jurkat
  GI50: 8420 nM
[11]
  GI50 at 72 h: > 20000 nM
K562
  GI50: > 20000 nM
[12]
  GI50 at 72 h: > 20000 nM
A-431
  GI50: > 20000 nM

## CC1=C(I)C(C)=[N+]2C1=C(c1c(Cl)cccc1Cl)c1c(C)c(I)c(C)n1[B-]2(F)F
SK-OV-3
  EC50: 0.77 nM

## CC1(C)C(/C=C/C=C/C=C/C=C2\N(CCCCS(=O)(=O)O)c3ccc4ccccc4c3C2(C)C)=[N+](CCCCS(=O)(=O)[O-])c2ccc3ccccc3c21 [INDOCYANINE GREEN]
[1]
  inhibition at 24 h, up to 25 µM: 0%
BXPC-3 [2]
  inhibition of growth at 6.25 µM: 0%
BXPC-3 [3]
  inhibition of growth at 12.5 µM: 0%
BXPC-3 [4]
  inhibition of growth at 25 µM: 0%
[5]
  inhibition at 24 h, up to 25 µM: 0%
MIA PaCa-2 [6]
  inhibition of growth at 6.25 µM: 0%
MIA PaCa-2 [7]
  inhibition of growth at 12.5 µM: 0%
MIA PaCa-2 [8]
  inhibition of growth at 25 µM: 0%

## CCN1/C(=C\C2=C([O-])C(=C\c3sc4cc(I)ccc4[n+]3CCCCS(=O)(=O)O)/C2=O)Sc2ccccc21
[13]
  cytotoxicity: < 10%
[14]
  inhibition (INH): 95 - 100%

## O=C1C(/C=C2/Sc3cc(I)ccc3N2CCCCS(=O)(=O)O)=C([O-])C/1=C\c1sc2cc(I)ccc2[n+]1CCCCS(=O)(=O)O
[13]
  cytotoxicity: < 10%
[14]
  inhibition (INH): 95 - 100%

## CCOC(=O)c1cc2c(n1Cc1ccccc1)-c1nc(N)ncc1CC2
[9]
  GI50 at 72 h: 14200 nM
LoVo
  GI50: 440 nM
[10]
  GI50 at 72 h: 14000 nM
Jurkat
  GI50: 210 nM
[11]
  GI50 at 72 h: > 20000 nM
K562
  GI50: 480 nM
[12]
  GI50 at 72 h: > 20000 nM
A-431
  GI50: 390 nM

## CC1(C)C(/C=C/C2=C(Cl)C(=C/C=C3/N(CCCCS(=O)(=O)O)c4ccc(I)cc4C3(C)C)/CCC2)=[N+](CCCCS(=O)(=O)O)c2ccc(I)cc21
[1]
  inhibition at 24 h, up to 25 µM: 0%
BXPC-3 [2]
  inhibition of growth at 6.25 µM: > 10%
BXPC-3 [3]
  inhibition of growth at 12.5 µM: > 20%
BXPC-3 [4]
  inhibition of growth at 25 µM: 40%
[5]
  inhibition at 24 h, up to 25 µM: 0%
MIA PaCa-2 [6]
  inhibition of growth at 6.25 µM: 30%
MIA PaCa-2 [7]
  inhibition of growth at 12.5 µM: > 60%
MIA PaCa-2 [8]
  inhibition of growth at 25 µM: > 80%

## CCN(CC)c1ccc(/C=C2\CC/C(=C\c3ccc(N(CCC(=O)O)CCC(=O)O)cc3)C2=O)cc1
[15]
  viability at 50 ug/ml: > 70%
[16]
  viability at 5 µg/mL: > 80%

## COCCOCCOCCN(CCOCCOCCOC)c1ccc(/C=C2\CC/C(=C\c3ccc(N(CCOCCOCCOC)CCOCCOCCOC)cc3)C2=O)cc1
[17]
  viability at 10 ug/ml: > 80%
[18]
  viability at 10 µg/mL: 60%
[19]
  logP: 2.32 to 3.04

## CC1=C(I)C(C)=[N+]2C1=C(c1ccncc1)c1c(C)c(I)c(C)n1[B-]2(F)F
SK-OV-3
  EC50: 1.29 nM

## CCOC(=O)c1cc2c(n1C)-c1[nH]c(=O)ncc1CC2
[9]
  GI50 at 72 h: > 20000 nM
LoVo
  GI50: 2300 nM
[10]
  GI50 at 72 h: 6000 nM
Jurkat
  GI50: 1080 nM
[11]
  GI50 at 72 h: > 20000 nM
K562
  GI50: 2920 nM
[12]
  GI50 at 72 h: > 20000 nM
A-431
  GI50: 2450 nM

## CC1=C(I)C(C)=[N+]2C1=C(c1ccc([N+](=O)[O-])cc1)c1c(C)c(I)c(C)n1[B-]2(F)F
SK-OV-3
  EC50: 2.01 nM

## O=C(O)CCN(CCC(=O)O)c1ccc(/C=C2\CC/C(=C\c3ccc(N(CCC(=O)O)CCC(=O)O)cc3)C2=O)cc1
[15]
  viability at 50 ug/ml: > 70%
[16]
  viability at 5 µg/mL: > 80%

## COCCOCCOCCOCCN(C)c1ccc(/C=C2\CC/C(=C\c3ccc(N(C)CCOCCOCCOCCOC)cc3)C2=O)cc1
[17]
  viability at 10 ug/ml: > 80%
[18]
  viability at 10 µg/mL: < 10%
[19]
  logP: 2.32 to 3.04

## CCN(CC)c1ccc(/C=C2\CC/C(=C\c3ccc(N(CCOCCOCCOCCOC)CCOCCOCCOCCOC)cc3)C2=O)cc1
[17]
  viability at 10 ug/ml: > 80%
[18]
  viability at 10 µg/mL: 10%
[19]
  logP: 2.32 to 3.04
